Patent EP0908457B1, “3-(1,2-benzisothiazol- and isoxazol-5-Y1)-2,4(1H,3H)-pyrimidinedione or thione and 3-(1,2-benzisothiazol- and isoxazol-5-y1)-4(3H)-pyrimidinone or thione herbicidal agents” (BASF AKTIENGESELLSCHAFT, priority 1997, dated 1999)

What was measured:
[1] = system: Echinochloa oryzoides (Ard.) Fritsch.; test: Preemergence weed control under flooded paddy conditions, ECHORC (Watergrass (Calif.)); type: in vivo; conditions: flooded paddy; for ECHORC: herbicidal effect rating 0-9, three to four weeks after treatment; on herbicidal effect rating, ECHORC: meaning of each grade not given here
Cyperus iria = test: Preemergence weed control under flooded paddy conditions, CYPIR (Rice Flatsedge); type: in vivo; conditions: flooded paddy; for CYPIR: herbicidal effect rating 0-9, three to four weeks after treatment; on herbicidal effect rating, CYPIR: meaning of each grade not given here
[2] = system: Cyperus serotinus, Rottb.; test: Preemergence weed control under flooded paddy conditions, CYPSE (Flatsedge); type: in vivo; conditions: for CYPSE: herbicidal effect rating 0-9, three to four weeks after treatment; on herbicidal effect rating, CYPSE: meaning of each grade not given here
[3] = system: Oryza sativa, (L.) Tebonnet; conditions: in vivo; on herbicidal effect rating ORYSAT: meaning of each grade not given here
[4] = system: Monochoria vaginalis, Presl.; test: Preemergence weed control under flooded paddy conditions, MOOVA (Monochoria); type: in vivo; conditions: flooded paddy; for MOOVA: herbicidal effect rating 0-9, three to four weeks after treatment; on herbicidal effect rating, MOOVA: meaning of each grade not given here
Sagittaria pygmaea, L. = test: Preemergence weed control under flooded paddy conditions, SAGPY (Arrowhead (Pygmaea)); type: in vivo; conditions: flooded paddy; for SAGPY: herbicidal effect rating 0-9, three to four weeks after treatment; on herbicidal effect rating, SAGPY: meaning of each grade not given here
[5] = 0.0320 kg/ha, preemergence weeds
[6] = 0.0620 kg/ha, preemergence weeds
[7] = 0.1250 kg/ha, preemergence weeds
[8] = 0.2500 kg/ha, preemergence weeds
[9] = 0.0313 kg/ha, preemergence, rated three to four weeks after treatment
[10] = 0.0625 kg/ha, preemergence, rated three to four weeks after treatment
[11] = 0.1250 kg/ha, preemergence, rated three to four weeks after treatment
[12] = 0.2500 kg/ha, preemergence, rated three to four weeks after treatment
[13] = Rate 0.0320 kg/ha, preemergence, rated 3-4 weeks after treatment
[14] = Rate 0.0620 kg/ha, preemergence, rated 3-4 weeks after treatment
[15] = Rate 0.1250 kg/ha, preemergence, rated 3-4 weeks after treatment
[16] = Rate 0.2500 kg/ha, preemergence, rated 3-4 weeks after treatment
[17] = Rate 0.5000 kg/ha, preemergence, rated 3-4 weeks after treatment
[18] = Rate 0.2500 kg/ha, preemergence weeds, rated three to four weeks after treatment
[19] = Rate 0.0320 kg/ha, preemergence, rated three to four weeks after treatment
[20] = Rate 0.0620 kg/ha, preemergence, rated three to four weeks after treatment
[21] = Rate 0.1250 kg/ha, preemergence, rated three to four weeks after treatment
[22] = Rate 0.2500 kg/ha, preemergence, rated three to four weeks after treatment

COC(OC)c1nsc2ccc(-n3c(=O)cc(C(F)(F)F)n(C)c3=O)cc12 [Example 453, 1,2-Benzisothiazole-3-carboxaldehyde, 5-[3,6-dihydro-3-methyl-2,6-dioxo-4-(trifluoromethyl)-1(2H)-pyrimidinyl]-, 3-(dimethylacetal)]
9.0: ECHORC [1, 5] | ECHORC [1, 6] | ECHORC [1, 7] | ECHORC [1, 8] | CYPIR (Cyperus iria; [5]) | CYPIR (Cyperus iria; [6]) | CYPIR (Cyperus iria; [7]) | CYPIR (Cyperus iria; [8]) | CYPSE [2, 5] | CYPSE [2, 6] | CYPSE [2, 7] | CYPSE [2, 8] | ORYSAT [3] | MOOVA [4, 5] | MOOVA [4, 6] | MOOVA [4, 7] | MOOVA [4, 8] | SAGPY (Sagittaria pygmaea, L.; [5]) | SAGPY (Sagittaria pygmaea, L.; [6]) | SAGPY (Sagittaria pygmaea, L.; [7]) | SAGPY (Sagittaria pygmaea, L.; [8])

1-Methyl-3-(2-methyl-3-oxo-1,2-benzisoxazolin-5-yl)-6-(trifluoromethyl)-2,4(1H,3H)-pyrimidinedione [Example 44]
0.0: herbicidal effect rating, ECHORC [1, 9] | herbicidal effect rating, ECHORC [1, 10] | herbicidal effect rating, ECHORC [1, 11] | herbicidal effect rating, ECHORC [1, 12] | herbicidal effect rating, CYPIR (Cyperus iria; [9]) | herbicidal effect rating, CYPIR (Cyperus iria; [10]) | herbicidal effect rating, CYPIR (Cyperus iria; [11]) | herbicidal effect rating, CYPIR (Cyperus iria; [12]) | herbicidal effect rating, CYPSE [2, 9] | herbicidal effect rating, CYPSE [2, 10] | herbicidal effect rating, CYPSE [2, 11] | herbicidal effect rating, CYPSE [2, 12] | herbicidal effect rating, ORYSAT (rice tolerance) [3] | herbicidal effect rating, MOOVA [4, 9] | herbicidal effect rating, MOOVA [4, 10] | herbicidal effect rating, MOOVA [4, 11] | herbicidal effect rating, MOOVA [4, 12] | herbicidal effect rating, SAGPY (Sagittaria pygmaea, L.; [9]) | herbicidal effect rating, SAGPY (Sagittaria pygmaea, L.; [10]) | herbicidal effect rating, SAGPY (Sagittaria pygmaea, L.; [11]) | herbicidal effect rating, SAGPY (Sagittaria pygmaea, L.; [12])

Cc1ccc(OCC(=O)c2ccccc2)c(-c2nsc3ccc(-n4c(=O)cc(C(F)(F)F)n(C)c4=O)cc23)c1 [Example 537, 2,4(1H,3H)-Pyrimidinedione, 1-methyl-3-{3-[6-(phenacyloxy)-m-tolyl]-1,2-benzisothiazol-5-yl}-6-(trifluoromethyl)-]
4.0: herbicidal effect rating, CYPIR (Cyperus iria; [16])
5.0: herbicidal effect rating, ECHORC [1, 15]
4.4: herbicidal effect rating, ECHORC [1, 14]
3.4: herbicidal effect rating, ECHORC [1, 13]
0.0: herbicidal effect rating, CYPIR (Cyperus iria; [13]) | herbicidal effect rating, CYPIR (Cyperus iria; [14]) | herbicidal effect rating, CYPSE [2, 13] | herbicidal effect rating, CYPSE [2, 14] | herbicidal effect rating, CYPSE [2, 15] | herbicidal effect rating, CYPSE [2, 16] | herbicidal effect rating, CYPSE [2, 17] | herbicidal effect rating ORYSAT [3] | herbicidal effect rating, SAGPY (Sagittaria pygmaea, L.; [13]) | herbicidal effect rating, SAGPY (Sagittaria pygmaea, L.; [14]) | herbicidal effect rating, SAGPY (Sagittaria pygmaea, L.; [15]) | herbicidal effect rating, SAGPY (Sagittaria pygmaea, L.; [16]) | herbicidal effect rating, SAGPY (Sagittaria pygmaea, L.; [17])
1.0: herbicidal effect rating, CYPIR (Cyperus iria; [15])
9.0: herbicidal effect rating, ECHORC [1, 16] | herbicidal effect rating, ECHORC [1, 17] | herbicidal effect rating, CYPIR (Cyperus iria; [17]) | herbicidal effect rating, MOOVA [4, 13] | herbicidal effect rating, MOOVA [4, 14] | herbicidal effect rating, MOOVA [4, 15] | herbicidal effect rating, MOOVA [4, 16] | herbicidal effect rating, MOOVA [4, 17]

Cn1c(C(F)(F)F)cc(=O)n(-c2ccc3snc(CNS(C)(=O)=O)c3c2)c1=O [Example 305]
0.0: herbicidal effect rating, ECHORC [1, 18] | herbicidal effect rating, CYPIR (Cyperus iria; [18]) | herbicidal effect rating, CYPSE [2, 18] | herbicidal effect rating ORYSAT [3] | herbicidal effect rating, MOOVA [4, 18] | herbicidal effect rating, SAGPY (Sagittaria pygmaea, L.; [18])

Cn1c(C(F)(F)F)cc(=O)n(-c2ccc3snc(CC=NO)c3c2)c1=O [Example 266, 1,2-Benzisothiazole-3-acetaldehyde, 5-[3,6-dihydro-3-methyl-2,6-dioxo-4-(trifluoromethyl)-1(2H)-pyrimidinyl]-, 3-oxime, (E)- and (Z)-]
3.0: CYPSE herbicidal effect rating [2, 22]
5.0: CYPIR herbicidal effect rating (Cyperus iria; [19]) | CYPIR herbicidal effect rating (Cyperus iria; [20]) | CYPIR herbicidal effect rating (Cyperus iria; [21])
9.0: CYPIR herbicidal effect rating (Cyperus iria; [22]) | MOOVA herbicidal effect rating [4, 19] | MOOVA herbicidal effect rating [4, 20] | MOOVA herbicidal effect rating [4, 21] | MOOVA herbicidal effect rating [4, 22]
0.0: ECHORC herbicidal effect rating [1, 19] | ECHORC herbicidal effect rating [1, 20] | ECHORC herbicidal effect rating [1, 21] | ECHORC herbicidal effect rating [1, 22] | CYPSE herbicidal effect rating [2, 19] | CYPSE herbicidal effect rating [2, 20] | CYPSE herbicidal effect rating [2, 21] | ORYSAT herbicidal effect rating [3] | SAGPY herbicidal effect rating (Sagittaria pygmaea, L.; [19]) | SAGPY herbicidal effect rating (Sagittaria pygmaea, L.; [20]) | SAGPY herbicidal effect rating (Sagittaria pygmaea, L.; [21]) | SAGPY herbicidal effect rating (Sagittaria pygmaea, L.; [22])
